Measurements reported in publication PMC6907063, “The Herb-Drug Pharmacokinetic Interaction of Fluoxetine and Its Metabolite Norfluoxetine with a Traditional Chinese Medicine in Rats by LC-MS/MS” (Evidence-based Complementary and Alternative Medicine : eCAM, 2019).

Experiments:
[1] = continuous administration of FLU for 2 weeks; cited from earlier work
[2] = Stability of the analytes in QC samples (LC-MS/MS method validation); assay type: physicochemical, rat; conditions: n = 5
Experimental: Quality control (QC) samples were prepared in the same way as mentioned above. […] All stability studies were evaluated at low, medium, and high QC levels with five determinations for each test. The relative standard deviations (RSDs) were used to evaluate the stability of the analytes. The RSD was expected to be within ±15.0%.

[3] = rat, in vivo, po, 1.8 mg/kg
in vivo = conditions: Sprague-Dawley, rat, po, 1.8 mg/kg
[4] = Pharmacokinetics of fluoxetine and its metabolite norfluoxetine in rat plasma after oral fluoxetine with or without CSGS for 14 d (LC-MS/MS)

## COc1ccc2c(c1)[C@]13CCCC[C@@H]1[C@H](C2)N(C)CC3 [dextromethorphan]
[1]
  increase of AUC: 27 times

## CNCCC(Oc1ccc(C(F)(F)F)cc1)c1ccccc1 (stereo not drawn) [fluoxetine]
[2]; QC concentration 1 ng/ml
  Measured C, at room temperature for 4 h: 1.010 ± 0.028 ng/mL
  Measured C, freeze-thaw three cycles: 0.997 ± 0.012 ng/mL
  Measured C, −20°C for 4 weeks: 0.987 ± 0.018 ng/mL
[2]; QC concentration 4 ng/ml
  Measured C, at room temperature for 4 h: 3.965 ± 0.210 ng/mL
  Measured C, freeze-thaw three cycles: 3.991 ± 0.212 ng/mL
  Measured C, −20°C for 4 weeks: 4.012 ± 0.231 ng/mL
[2]; QC concentration 16 ng/ml
  Measured C, at room temperature for 4 h: 15.832 ± 0.536 ng/mL
  Measured C, freeze-thaw three cycles: 15.872 ± 0.845 ng/mL
  Measured C, −20°C for 4 weeks: 15.872 ± 0.654 ng/mL
[3]
  AUC (0–∞) of fluoxetine: 12.20 ± 2.67 ug/L∗h
In vivo
  Tmax: 45 min
In vivo; C max of fluoxetine
  Cmax: 2.19 ng/mL
In vivo; CLz/F of fluoxetine
  CL/F: 2490 mL/min/kg
In vivo; Cmax of fluoxetine
  Cmax: 2.19 ng/mL
In vivo; MRT (0–t) of fluoxetine
  MRT last: 7.67 ± 1.02 h
In vivo; t1/2z of fluoxetine
  half-life: 537 ± 450 min
[4]; FLU group (fluoxetine 1.8 mg/kg·d for 14 d)
  AUCs (0–∞) of FLU: 12.20 ± 2.67 μg/L∗h
[4]; multiple dose group A (CSGS […]·d + fluoxetine 1.8 mg/kg·d)
  AUCs (0–∞) of FLU: 11.20 ± 3.86 μg/L∗h
[4]; multiple dose group B (CSGS 11.8 g/kg·d + fluoxetine 1.8 mg/kg·d)
  AUCs (0–∞) of FLU: 14.54 ± 3.22 μg/L∗h
[4]; multiple dose group C (CSGS 23.6 g/kg·d + fluoxetine 1.8 mg/kg·d)
  AUCs (0–∞) of FLU: 22.01 ± 4.49 μg/L∗h

## CC[C@H](C)C(=O)O[C@H]1C[C@@H](C)C=C2C=C[C@H](C)[C@H](CC[C@@H]3C[C@@H](O)CC(=O)O3)[C@H]21 [lovastatin]
[1]
  effect on AUC: did not affect

## Cc1ncc2n1-c1ccc(Cl)cc1C(c1ccccc1F)=NC2 [midazolam]
[1]
  effect on AUC: did not affect

## NCCC(Oc1ccc(C(F)(F)F)cc1)c1ccccc1 (stereo not drawn) [norfluoxetine]
[2]; QC concentration 2 ng/ml
  Measured C, at room temperature for 4 h: 1.943 ± 0.054 ng/mL
  Measured C, freeze-thaw three cycles: 1.879 ± 0.045 ng/mL
  Measured C, −20°C for 4 weeks: 1.873 ± 0.044 ng/mL
[2]; QC concentration 4 ng/ml
  Measured C, at room temperature for 4 h: 3.934 ± 0.186 ng/mL
  Measured C, freeze-thaw three cycles: 4.012 ± 0.231 ng/mL
  Measured C, −20°C for 4 weeks: 3.891 ± 0.156 ng/mL
[2]; QC concentration 8 ng/ml
  Measured C, at room temperature for 4 h: 7.897 ± 0.234 ng/mL
  Measured C, freeze-thaw three cycles: 7.987 ± 0.341 ng/mL
  Measured C, −20°C for 4 weeks: 7.871 ± 0.246 ng/mL

## COc1ccc2[nH]c([S+]([O-])Cc3ncc(C)c(OC)c3C)nc2c1 (stereo not drawn) [omeprazole]
[1]
  increase of AUC: 7.1 times
